In article PMC10636063, “Progesterone activation of β1-containing BK channels involves two binding sites” (Nature Communications, 2023):
Several values for one entry are separate records, joined by “and”; a condition that tells them apart may be missing. Equal entries are not always repeated.

Key:
[1] = target: T1, slo1 (cbv1 isoform)+β1 BK channels (Rattus norvegicus, UniProt P97678); assay: Channel activity (NPo) in POPE/POPS planar lipid bilayers, cbv1+β1; assay type: biochemical
T1 construct: made in house; host or cells: CHO cells, transient transfection; sucrose-gradient membrane preparation
Description: BK channel-forming slo1 cDNA (cbv1 isoform; AY330293) was cloned from rat cerebral artery SM cells, and inserted into pcDNA3.1 vector as described. BK β1 cDNA (KCNMB1 product; NP_011452; FJ154955) were isolated from rat cerebral artery SM cells and cloned as described. β4 cDNA (KCNMB4; NP_055320; AY028605) were generously provided by Dr. Ligia Toro. CHO cells were transiently transfected with cbv1 ± β1-, or β4-carrying pcDNA3.1 using X-tremeGENE HP (Sigma-Aldrich). Mutations to β1/4 cDNAs were conducted by Genscript, with sequences being confirmed to be >99% identical to KCNMB1 product; NP_011452 or β4 KCNMB4; NP_055320; respectively. β1/4 and mutant constructs were flag-tagged (DYKDDDDK-tag) by Genscript services for subsequent immunoprecipitation and use in microscale thermophoresis studies.
Proteins for electrophysiological recordings in artificial lipid bilayers remained untagged. Cells were transiently transfected as described above, pelleted and re-suspended on ice in 10 ml of buffer solution of the following composition (mM): 30 KCl, 2 MgCl2, 10 HEPES, 5 EGTA; pH 7.2. A membrane preparation was obtained using a sucrose gradient as described. Aliquots were stored at −80 °C. BK channel-mediated ionic current was recorded in planar lipid bilayers consisting of a POPE:POPS 3:1 (w/w) mixture. Lipid mixtures were dried under N2 and re-suspended in 25 mg/ml of n-decane BK currents following incorporation into horizontal bilayers at 300/30 mM cis/trans gradient as detailed elsewhere. Ion currents were obtained during a 10-min gap-free recording at 0 mV in the presence of 0.01, 10 μM PROG, 10 μM PROG-oxime, or vehicle control (dimethyl sulfoxide; DMSO). Currents were obtained in gap-free mode using a Warner BC-525D amplifier, low pass-filtered at 1 kHz and sampled at 5 kHz with Digidata 1550B/pCLAMP 11 (Molecular Devices). For comparison with previous data from us[16],[17],[45]–[47], studies were conducted at 20–22 °C. […]
Patch-clamp and bilayer data were analyzed using Clampfit 10.7 software (Molecular Devices). NPo was used as an index of channel steady-state activity where N = number of channels in the patch (defined as a maximal number of opening levels at Po≤1) and Po=single channel open probability. Drug-induced NPo changes were determined by comparing baseline NPo (i.e., NPo with the patch/cell perfused with bath solution) to the NPo from the same patch/cell exposed to the agent under study (DMSO/PROG/oxime) dissolved in bath solution. NPo and mean open time values were automatically calculated using Clampfit 10.7, the latter using a 50% threshold detection event.

[2] = test system: de-endothelialized, pressurized MCA segments (C57BL/6); assay: Cerebral artery diameter in vitro, de-endothelialized pressurized MCA segments; parameters: species or system mouse
Description: Eight-12 week-old C57BL/6J and KCNMB1^−/− on C57BL/6 background mice of both sexes were deeply anesthetized with isoflurane via inhalation in a tightly sealed jar. Resistance size MCAs (~100 μm in external diameter) were dissected out of the mouse brains after animal euthanasia with sharp scissors. For de-endothelialized records, the endothelium was removed by passing an air bubble into the vessel lumen for 90 s[30]. This method has been consistently used by our group and validated using endothelium-dependent versus endothelium-independent vasodilators[16],[26]. Arteries were cannulated as previously described by our group[26],[40]. MCAs were cut into 5 to 10 mm-long segments under a microscope (Nikon SMZ645). The segment was cannulated at each end, and the artery exterior was continuously perfused with physiologic sodium saline (PSS) of the following composition (mM): 119 NaCl, 4.7 KCl, 1.2 KH2PO4, 1.6 CaCl2, 1.2 MgSO4, 0.023 EDTA, 11 glucose, 24 NaHCO3, pH=7.4. PSS was continuously bubbled with an O2/CO2/N2 (21/5/74%) gas mixture and maintained at 35–37 °C. The artery external wall diameter was measured using the automatic edge-detection function of lonWizard software (lonOptix) via Sanyo VCB-3512T camera (Sanyo Electric Co.). Arteries were first incubated at an intravascular pressure of 10 mm Hg for 10 min. Then intravascular pressure was increased to 60 mmHg and held steady throughout the experiment to induce myogenic tone development and maintenance[19],[30],[51]. Each artery segment was exposed to PROG, PROG-oxime (in presence and absence of 1 µM paxilline) only once to avoid development of desensitization during repeated applications of PROG-containing solution. To determine arterial viability, arterial contractility was probed with a high KCl solution at the end of each experiment. The high KCl solution was composed of the following composition (mM): 63.7 NaCl, 60 KCl, 1.2 KH2PO4, 1.2 MgSO4, 0.023 EDTA, 11 glucose, 24 NaHCO3, 1.6 CaCl2, pH=7.4. Like PSS, the high-KCl solution was continuously bubbled with O2/CO2/N2 (21/5/74%) gas mixture and maintained at 35–37 °C.

[3] = test system: pial arteries branching out of the MCA (C57BL/6J); assay: Cerebral artery diameter through cranial window in vivo; parameters: species or system mouse; details: individual replicates
Description: Eight-12 week-old male and female C57BL/6J mice were anesthetized with a mixture of xylazine/ketamine (12/100 mg per kg) and kept anesthetized for the duration of the experiment with subsequent ketamine doses (50 mg/kg of weight) as needed. A catheter was inserted into the carotid artery so that the infusion went straight to the brain rather than towards the thoracic cavity. An area of the skull was cleared of tissue and thinned to expose the branching arteries originating from the MCA on the side the catheter was inserted, above the zygomatic arch, between the ear and eye of the skull[19],[34]. The exposed arteries branching out from the MCA were monitored using a Leica MC170 HD microscope with a mounted camera (Leica M125 C) connected to a computer monitor. Drugs were diluted to their final concentration in sodium saline (0.9% NaCl) and administered via catheter at 0.1 ml/25 g of weight. Cranial window images before and after drug administration were acquired every 60 seconds for subsequent analysis.

T1 sequence (P97678 whole entry, canonical isoform): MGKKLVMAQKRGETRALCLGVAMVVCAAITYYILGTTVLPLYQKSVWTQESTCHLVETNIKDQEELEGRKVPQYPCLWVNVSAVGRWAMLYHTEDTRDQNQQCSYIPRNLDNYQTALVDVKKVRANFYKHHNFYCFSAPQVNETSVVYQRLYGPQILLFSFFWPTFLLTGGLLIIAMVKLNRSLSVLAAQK
T1 sequence (Q62976 1-1148 isoform Q62976-2 partner): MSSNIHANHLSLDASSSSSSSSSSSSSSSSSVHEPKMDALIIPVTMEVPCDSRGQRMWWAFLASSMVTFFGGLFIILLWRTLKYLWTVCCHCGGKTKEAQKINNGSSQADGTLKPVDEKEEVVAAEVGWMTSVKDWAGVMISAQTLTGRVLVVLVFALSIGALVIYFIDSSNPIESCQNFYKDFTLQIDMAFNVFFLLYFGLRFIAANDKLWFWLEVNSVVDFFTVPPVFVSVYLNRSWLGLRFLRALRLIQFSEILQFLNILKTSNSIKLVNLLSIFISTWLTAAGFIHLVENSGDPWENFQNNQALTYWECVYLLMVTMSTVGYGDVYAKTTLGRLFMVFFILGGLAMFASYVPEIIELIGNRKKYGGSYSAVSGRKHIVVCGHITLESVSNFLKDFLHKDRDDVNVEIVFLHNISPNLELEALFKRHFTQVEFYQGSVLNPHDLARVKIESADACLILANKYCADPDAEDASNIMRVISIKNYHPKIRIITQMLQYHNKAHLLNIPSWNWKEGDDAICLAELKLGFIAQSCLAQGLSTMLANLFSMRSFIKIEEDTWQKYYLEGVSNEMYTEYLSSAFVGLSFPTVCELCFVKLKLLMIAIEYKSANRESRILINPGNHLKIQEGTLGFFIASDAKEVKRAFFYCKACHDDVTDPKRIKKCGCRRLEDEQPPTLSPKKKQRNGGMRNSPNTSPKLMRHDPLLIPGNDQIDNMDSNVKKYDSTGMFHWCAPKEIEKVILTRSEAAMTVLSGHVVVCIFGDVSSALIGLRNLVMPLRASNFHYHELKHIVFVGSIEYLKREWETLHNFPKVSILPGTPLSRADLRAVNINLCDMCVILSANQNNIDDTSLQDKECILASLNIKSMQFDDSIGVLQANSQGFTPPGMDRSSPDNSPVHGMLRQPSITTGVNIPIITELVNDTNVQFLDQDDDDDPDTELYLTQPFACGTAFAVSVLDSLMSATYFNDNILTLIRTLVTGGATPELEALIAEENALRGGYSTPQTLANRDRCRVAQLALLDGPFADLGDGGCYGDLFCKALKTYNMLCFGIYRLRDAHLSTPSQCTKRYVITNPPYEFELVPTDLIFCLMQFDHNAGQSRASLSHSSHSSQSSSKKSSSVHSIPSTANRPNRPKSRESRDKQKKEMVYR

CC(=O)C1CCC2C3CCC4=CC(=NOCC(=O)O)CCC4(C)C3CCC12C (centres unmarked) [PROG-oxime, progesterone 3-(O-carboxymethyl)oxime]
NPo/NPobasal ([1]; 10 μM PROG-oxime, min 8, single records): 1.05 and 1.498 and 1.058 and 0.7956 and 1.316
NPo/NPobasal ([1]; 10 μM PROG-oxime, min 9, single records): 1.025 and 1.49 and 0.9987 and 0.8873 and 1.604
NPo/NPobasal ([1]; 10 μM PROG-oxime, min 10, single records): 1.45 and 1.329 and 1.113 and 0.8109 and 1.283
maximal changes in channel activity (NPo/NPobasal) ([1]; 10 μM PROG-oxime, single records (Fig 3E)): 1.0077 and 0.9962 and 1.086 and 1.4825 and 1.776 and 1.183
action on channel activity (NPo) ([1]; 10 μM, cis chamber, vs DMSO): did not differ from that evoked by vehicle control
vasoactive response of MCA segments ([2]; 10 μM in the presence of 1 μM paxilline): MCA constriction that was preserved
vasoactive response of MCA segments ([2]; 10 μM, male and female mice): failed to evoke MCA dilation
artery diameter, normalized to time 0 ([3]; Fig 7C, time 0, male mice): 1 (4×) and 1.00
artery diameter, normalized to time 0 ([3]; Fig 7C, time 1, male mice): 0.9683 and 1.00 and 1.045 and 1.037 and 1.174
artery diameter, normalized to time 0 ([3]; Fig 7C, time 2, male mice): 0.9748 and 0.99 and 1.075 and 1.065 and 0.9672
artery diameter, normalized to time 0 ([3]; Fig 7C, time 3, male mice): 0.9521 and 0.88 and 1.045 and 0.8398 and 1.066
artery diameter, normalized to time 0 ([3]; Fig 7C, time 4, male mice): 0.9683 and 0.84 and 0.9351 and 0.8169 and 0.9018
artery diameter, normalized to time 0 ([3]; Fig 7C, time 5, male mice): 1.008 and 1.01 and 1.026 and 0.9472 and 0.9098
artery diameter, normalized to time 0 ([3]; Fig 7C, time 6, male mice): 1.041 and 0.92 and 0.9494 and 0.9176 and 1.063
artery diameter, normalized to time 0 ([3]; Fig 7C, time 7, male mice): 0.9184 and 0.90 and 0.9635 and 0.9259 and 0.9935
artery diameter, normalized to time 0 ([3]; Fig 7C, time 8, male mice): 0.9894 and 0.92 and 0.9405 and 0.9778 and 0.9794
artery diameter, normalized to time 0 ([3]; Fig 7C, time 9, male mice): 0.8438 and 0.91 and 1.0031 and 0.973 and 0.9169
artery diameter, normalized to time 0 ([3]; Fig 7D, time 0, female mice): 1.00 and 1 (4×)
artery diameter, normalized to time 0 ([3]; Fig 7D, time 1, female mice): 0.90 and 1.017 and 1.077 and 0.9108 and 0.9562
artery diameter, normalized to time 0 ([3]; Fig 7D, time 2, female mice): 0.98 and 0.9692 and 1.08 and 1.015 (2×)
artery diameter, normalized to time 0 ([3]; Fig 7D, time 3, female mice): 0.96 and 0.8809 and 1.0998 and 0.9303 and 1.006
artery diameter, normalized to time 0 ([3]; Fig 7D, time 4, female mice): 0.71 and 0.9764 and 0.9876 and 0.9569 and 0.8502
artery diameter, normalized to time 0 ([3]; Fig 7D, time 5, female mice): 0.75 and 0.9574 and 1.009 and 0.7872 and 0.892
artery diameter, normalized to time 0 ([3]; Fig 7D, time 6, female mice): 0.76 and 0.8573 and 1.009 and 0.8606 and 0.8869
artery diameter, normalized to time 0 ([3]; Fig 7D, time 7, female mice): 0.82 and 0.8681 and 0.9667 and 0.8496 and 0.8082
artery diameter, normalized to time 0 ([3]; Fig 7D, time 8, female mice): 0.87 and 0.8872 and 1.0207 and 0.8807 and 0.7534
artery diameter, normalized to time 0 ([3]; Fig 7D, time 9, female mice): 0.74 and 0.8893 and 0.9136 and 0.9444 and 0.8332
artery diameter, normalized (PROG vs oxime comparison) ([3]; Fig 7E, same values as Fig 7C time 7, male mice): 0.8986
artery diameter, normalized (PROG vs oxime comparison) ([3]; Fig 7F, same values as Fig 7D time 7, female mice): 0.97 and 0.85 and 0.81
